In the supplement of paper PMC10307832:

Experiments:
Test in all cases: relative viability (nuclei count vs DMSO), 5 days (fraction); higher = more cells survive
CAP-232 + Vorinostat = compound: C[C@H]([C@@H](C(=O)N)NC(=O)[C@@H]1CSSC[C@@H](C(=O)N[C@H](C(=O)N[C@@H](C(=O)N[C@H](C(=O)N1)CCCCN)CC2=CNC3=CC=CC=C32)CC4=CC=C(C=C4)O)NC(=O)[C@@H](CC5=CC=CC=C5)N)O [CAP-232] + O=C(CCCCCCC(=O)Nc1ccccc1)NO [Vorinostat] (partner 1 µM)
Outline: (§1)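 Medians of duplicate plates are given as relative viability. That measure is the nuclei count in treated wells divided by the count in vehicle wells. Counts were taken on 4× images of lung cancer cell lines in 1536-well plates, 5 days after pin-tool dosing the day after seeding with one drug alone or a fixed anchor-drug dose plus five library-drug doses (not always all listed) in √10 steps.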

CAP-232 + Luminespib = compound: C[C@H]([C@@H](C(=O)N)NC(=O)[C@@H]1CSSC[C@@H](C(=O)N[C@H](C(=O)N[C@@H](C(=O)N[C@H](C(=O)N1)CCCCN)CC2=CNC3=CC=CC=C32)CC4=CC=C(C=C4)O)NC(=O)[C@@H](CC5=CC=CC=C5)N)O [CAP-232] + CCNC(=O)c1noc(-c2cc(C(C)C)c(O)cc2O)c1-c1ccc(CN2CCOCC2)cc1 [Luminespib] (partner 0.01 µM)
Outline: as §1

CAP-232 + OSI-027 = compound: C[C@H]([C@@H](C(=O)N)NC(=O)[C@@H]1CSSC[C@@H](C(=O)N[C@H](C(=O)N[C@@H](C(=O)N[C@H](C(=O)N1)CCCCN)CC2=CNC3=CC=CC=C32)CC4=CC=C(C=C4)O)NC(=O)[C@@H](CC5=CC=CC=C5)N)O [CAP-232] + COc1cccc2cc(-c3nc([C@H]4CC[C@H](C(=O)O)CC4)n4ncnc(N)c34)[nH]c12 [OSI-027] (partner 0.5 µM)
Outline: as §1

CAP-232 + Trametinib = compound: C[C@H]([C@@H](C(=O)N)NC(=O)[C@@H]1CSSC[C@@H](C(=O)N[C@H](C(=O)N[C@@H](C(=O)N[C@H](C(=O)N1)CCCCN)CC2=CNC3=CC=CC=C32)CC4=CC=C(C=C4)O)NC(=O)[C@@H](CC5=CC=CC=C5)N)O [CAP-232] + CC(=O)Nc1cccc(-n2c(=O)n(C3CC3)c(=O)c3c(Nc4ccc(I)cc4F)n(C)c(=O)c(C)c32)c1 [Trametinib] (partner 0.02 µM)
Outline: as §1

CAP-232 + AZD7762 = compound: C[C@H]([C@@H](C(=O)N)NC(=O)[C@@H]1CSSC[C@@H](C(=O)N[C@H](C(=O)N[C@@H](C(=O)N[C@H](C(=O)N1)CCCCN)CC2=CNC3=CC=CC=C32)CC4=CC=C(C=C4)O)NC(=O)[C@@H](CC5=CC=CC=C5)N)O [CAP-232] + NC(=O)Nc1cc(-c2cccc(F)c2)sc1C(=O)N[C@H]1CCCNC1 [AZD7762] (partner 0.2 µM)
Outline: as §1

Row | Cell Line | relative viability (CAP-232 + Vorinostat; first compound 0.4 µM) | relative viability (CAP-232 + Vorinostat; first compound 1.265 µM) | relative viability (CAP-232 + Vorinostat; first compound 4 µM) | relative viability (CAP-232 + Vorinostat; first compound 12.65 µM) | relative viability (CAP-232 + Luminespib; first compound 0.4 µM) | relative viability (CAP-232 + Luminespib; first compound 1.265 µM) | relative viability (CAP-232 + Luminespib; first compound 4 µM) | relative viability (CAP-232 + Luminespib; first compound 12.65 µM) | relative viability (CAP-232 + OSI-027; first compound 0.4 µM) | relative viability (CAP-232 + OSI-027; first compound 1.265 µM) | relative viability (CAP-232 + OSI-027; first compound 4 µM) | relative viability (CAP-232 + OSI-027; first compound 12.65 µM) | relative viability (CAP-232 + Trametinib; first compound 0.4 µM) | relative viability (CAP-232 + Trametinib; first compound 1.265 µM) | relative viability (CAP-232 + Trametinib; first compound 4 µM) | relative viability (CAP-232 + Trametinib; first compound 12.65 µM) | relative viability (CAP-232 + AZD7762; first compound 0.4 µM) | relative viability (CAP-232 + AZD7762; first compound 1.265 µM) | relative viability (CAP-232 + AZD7762; first compound 4 µM) | relative viability (CAP-232 + AZD7762; first compound 12.65 µM)
1 | 201T | 1.05 | 0.98 | 1 | 0.995 | 1.08 | 1.04 | 0.967 | 1.07 | 0.749 | 0.669 | 0.722 | 0.549 | 0.707 | 0.698 | 0.729 | 0.677 | 0.636 | 0.716 | 0.643 | 0.643
2 | A-427 | 0.937 | 0.882 | 0.879 | 0.893 | 0.697 | 0.968 | 0.87 | 1.03 | 0.306 | 0.458 | 0.494 | 0.612 | 0.615 | 0.716 | 0.795 | 0.684 | 0.72 | 0.754 | 0.811 | 0.746
3 | ABC-1 | 1.48 |  | 1.13 | 0.952 | 0.554 | 0.587 | 0.686 | 0.377 | 0.455 | 0.421 | 0.481 | 0.271 |  |  |  |  | 0.883 | 0.541 | 0.803 | 0.692
4 | BEN | 0.547 | 0.57 | 0.565 | 0.479 | 0.501 | 0.234 | 0.184 | 0.371 | 0.27 | 0.33 | 0.287 | 0.241 | 1.15 | 0.987 | 0.997 | 0.914 | 0.789 | 0.714 | 0.7 | 0.553
5 | CAL-12T | 0.805 | 0.752 | 0.832 | 0.431 | 0.132 | 0.184 | 0.242 | 0.155 | 0.611 | 0.556 | 0.585 | 0.298 | 0.233 | 0.303 | 0.394 | 0.162 | 0.753 | 0.596 | 0.664 | 0.706
6 | COR-L23 | 0.518 | 0.474 | 0.488 | 0.381 | 0.475 | 0.776 | 0.81 | 0.506 | 1.15 | 0.759 | 0.85 | 0.495 | 0.455 | 0.597 | 0.604 | 0.281 |  |  |  | 
7 | COR-L 105 | 0.871 | 0.719 | 1 | 0.637 | 0.768 | 0.652 | 0.737 | 0.494 | 0.852 | 0.646 | 0.646 | 0.387 | 0.371 | 0.414 | 0.395 | 0.377 |  |  |  | 
8 | ChaGo-K-1 | 0.835 | 0.724 | 0.709 | 0.71 | 0.574 | 0.638 | 0.495 | 0.545 | 0.65 | 0.504 | 0.678 | 0.6 | 0.867 | 0.892 | 1.01 | 0.93 | 0.869 | 0.868 | 0.916 | 0.817
9 | EKVX | 1.01 | 0.74 | 0.818 | 0.749 | 0.876 | 0.719 | 0.871 | 0.645 | 0.724 | 0.779 | 0.667 | 0.64 | 0.583 | 0.342 | 0.268 | 0.331 | 0.899 | 0.712 | 0.699 | 0.471
10 | EMC-BAC-2 | 0.818 | 0.395 | 0.483 | 0.383 | 1.32 | 1.19 | 1.21 | 1.05 | 0.407 | 0.324 | 0.328 | 0.358 | 0.757 | 0.864 | 0.859 | 0.415 | 1.28 | 1.05 | 1.12 | 0.828
11 | EPLC-272H |  | 0.615 | 0.545 | 0.158 | 0.256 | 0.198 | 0.219 | 0.157 | 0.275 | 0.284 | 0.285 | 0.262 | 0.261 | 0.258 | 0.281 | 0.28 | 0.287 | 0.165 | 0.228 | 0.209
12 | H3255 | 0.923 |  | 0.7 | 0.726 | 0.805 | 0.825 | 1.05 | 1.01 | 0.567 | 0.538 | 0.63 | 0.811 | 0.608 |  | 0.543 | 0.436 | 0.979 | 0.869 | 0.898 | 0.756
13 | HARA | 0.497 | 0.487 | 0.598 | 0.432 | 0.918 | 0.884 | 0.973 | 0.804 | 0.436 | 0.554 | 0.613 | 0.44 | 0.323 | 0.9 | 0.643 | 0.506 | 0.397 | 0.576 | 0.267 | 0.315
14 | HCC-15 | 0.825 | 0.858 | 0.959 | 0.61 | 0.254 | 0.228 | 0.248 | 0.312 | 0.714 | 0.662 | 0.69 | 0.521 | 0.376 | 0.364 | 0.393 | 0.267 | 1.36 | 1.28 | 1.34 | 1.14
